The subject of experiment [1] is QA-induced excitotoxicity in CD1 mice. Put plainly: Intrastriatal QA-induced model of Huntington's disease. It is filed as in vivo. The protocol:
Figure 5 Protective action of VCE-003.2 administration in QA-induced excitotoxicity in vivo. (a) CD1 mice were subjected to quinolinic acid (QA) intrastriatal injection and RotaRod performance (fold change) was determined 2 days after lesion in vehicle- and VCE-003.2-treated mice (10 mg/kg). (b) Representative MRI images (Upper panel) and edema volume quantification (lower panel) 5 days after QA injection. Values are expressed as means ± SEM. Sham-Veh and Sham-VCE (n = 7 in each group); QA-Veh (n = 8); QA-VCE (n = 7). **p < 0.01, ***p < 0.001 vs. Vehicle. ^#p < 0.05 vs. QA.
Figure 6 Neuroprotection and attenuation of glial reactivity by VCE-003.2 in QA-induced excitotoxicity in vivo. (a) Representative immunofluorescence images of DARPP32, GFAP, Iba-1 are shown in sham and QA-injected mice treated with vehicle or VCE-003.2 (10 mg/kg). (b) Immunoreactivity of the different markers was quantified with Image J software and referred to the striatal surface analyzed. Values are expressed as means ± SEM. Sham-Veh and Sham-VCE (n = 3); QA-Veh (n = 8); QA-VCE (n = 6). **p < 0.01, ***p < 0.001 vs. QA. Bar size, 200 μm.
Mice were housed under standard conditions (12-h light/dark cycle) in groups with access to food and water ad libitum. All experiments were performed in accordance with European Union guideline and approved by the Animal Research Ethic Committee of Córdoba University (2014PI/017) (3NP model) and by the Animal Research Ethic Committee of Complutense University (CEA-UCM 73/2012) (QA model). Procedures were designed to minimize the number of animals used and their suffering. Excitotoxicity was induced by intrastriatal quinolinic acid (QA) administration (100 nmol in 1 μL PBS solution, unilaterally) as previously described[41] at the following coordinates: +0.6 posterior to bregma, +1.85 medio-lateral and -2.7 dorso-ventral to dura, in 12-week-old CD1 male mice (Harlan Ibérica, Barcelona, Spain). Pharmacological manipulation with VCE-003.2 (10 mg/kg body weight) was performed i.p. daily in 2% Tween 20 and 3% DMSO in saline buffer until sacrifice. Control animals received the corresponding vehicle injections. Motor function was assessed by RotaRod analysis conducted with acceleration from 4 to 40 rpm over a period of 570 s in an LE8200 device (Harvard Apparatus, Barcelona, Spain). […] 3NP-treated animals and their respective non-lesioned controls (injected with PBS) were used for pharmacological studies with VCE-003.2. Treatments consisted of 4 i.p. injections every 24 h with 20 mg/kg VCE-003.2 or vehicle (4% DMSO plus 6,2% Tween 20 in saline buffer), with the first and the last injections 30 min before the first and the last injections of 3NP, respectively. In some experiments, mice received a combination of VCE-003.2 and the PPARγ antagonist T0070907 (5 mg/kg) injected 15 minutes before VCE-003.2. In 3NP-lesioned mice, motor activity, hindlimb clasping, dystonia, and truncal dystonia were evaluated following previously described procedures. All behavioural tests were conducted prior to drug injections to avoid acute effects of the compounds under investigation and all animals were euthanized 12 h after the last injection of 3NP and their brains removed. The right hemispheres were used to dissect the striatum which was frozen in RNAlater (Sigma-Aldrich) and stored at −80 °C for biochemical analyses. […]

Experiment [2] relates to osteoblast-differentiating MSCs. Put plainly: Osteoblast differentiation of human mesenchymal stem cells. The settings on record: osteoblastogenic medium, 14 days of differentiation.
From the text: The Reina Sofia University Hospital Review Board approved this study and the procedures followed were in accordance with the ethical standards of the ethic committee from Hospital Reina Sofía and with the Declaration of Helsinki. Bone marrow donors were recruited by the Haematology Service. All subjects gave their informed consent so that the bone marrow aliquots extracted for clinical purposes could also be used for mesenchymal bone marrow research. […] Adipogenic and osteoblast differentiation was performed as described[22]. Treatment with RZG and VCE-003.2 started at the same time as the differentiation process. […] The images captured with the light microscope were analyzed with the ImageJ Software (NIH; Bethesda, MD, USA).
Cells were collected at day 14 of differentiation and total RNA was extracted using the High Pure RNA Isolation kit (Roche Diagnostics). The total amount of RNA extracted was quantified using NanoDrop 2000 (Thermo Fisher Scientific Inc). Total RNA (1 μg) was retrotranscribed using the iScriptTM cDNA Synthesis Kit (Bio-Rad; Hercules, CA, USA), and the cDNA generated was analyzed by real-time PCR, using the iQ^TM SYBR Green Supermix (Bio-Rad; Hercules, CA, USA). Real-time PCR to quantify the mRNA of osteoblastic and adipocityc markers was performed using a CFX96 Real-time PCR Detection System (Bio-Rad; Hercules, CA, USA). […]

For `CCCCCC1=C(NCC)C(=O)C(C/C=C(\C)CCC=C(C)C)=C(O)C1=O` [VCE-003.2], the RotaRod performance entry in experiment [1] (2 days after QA injury, 10 mg/kg i.p. daily) was “reversed”. Also, in experiment [1] (5 days after QA injury, 10 mg/kg), the “edema volume (MRI)” value is “edema volume was not affected”. In experiment [1] (striatum, 10 mg/kg), the “QA-induced DARPP32 neuronal loss” value is given as “prevented QA-induced DARRP32 neuronal loss”; the “microglial activation (Iba-1)” value was “prevented QA-induced DARRP32 neuronal loss and microglial activation”; the “reactive astrogliosis (GFAP)” value is on record as “tendency to attenuate reactive astrogliosis”. Further, the “expression of osteogenic differentiation markers Runx2, SP7, ALP, IBSP” value in experiment [2] was “mild and did not inhibit the expression of osteogenic differentiation markers”.

Values taken from PMC4949444 (Scientific Reports, 2016).
